According to publication PMC10520499, “Next step in the development of mesoprogestins: the preclinical profile of EC313” (Frontiers in Endocrinology, 2023):

Key:
human androgen receptor = target: T1, human androgen receptor (Homo sapiens, UniProt P10275); test: AR transactivation (CHO, MMTV-LUC); format: cell-based
T1 construct: host or cells: CHO, transient co-transfection
T1 sequence (P10275 1-920): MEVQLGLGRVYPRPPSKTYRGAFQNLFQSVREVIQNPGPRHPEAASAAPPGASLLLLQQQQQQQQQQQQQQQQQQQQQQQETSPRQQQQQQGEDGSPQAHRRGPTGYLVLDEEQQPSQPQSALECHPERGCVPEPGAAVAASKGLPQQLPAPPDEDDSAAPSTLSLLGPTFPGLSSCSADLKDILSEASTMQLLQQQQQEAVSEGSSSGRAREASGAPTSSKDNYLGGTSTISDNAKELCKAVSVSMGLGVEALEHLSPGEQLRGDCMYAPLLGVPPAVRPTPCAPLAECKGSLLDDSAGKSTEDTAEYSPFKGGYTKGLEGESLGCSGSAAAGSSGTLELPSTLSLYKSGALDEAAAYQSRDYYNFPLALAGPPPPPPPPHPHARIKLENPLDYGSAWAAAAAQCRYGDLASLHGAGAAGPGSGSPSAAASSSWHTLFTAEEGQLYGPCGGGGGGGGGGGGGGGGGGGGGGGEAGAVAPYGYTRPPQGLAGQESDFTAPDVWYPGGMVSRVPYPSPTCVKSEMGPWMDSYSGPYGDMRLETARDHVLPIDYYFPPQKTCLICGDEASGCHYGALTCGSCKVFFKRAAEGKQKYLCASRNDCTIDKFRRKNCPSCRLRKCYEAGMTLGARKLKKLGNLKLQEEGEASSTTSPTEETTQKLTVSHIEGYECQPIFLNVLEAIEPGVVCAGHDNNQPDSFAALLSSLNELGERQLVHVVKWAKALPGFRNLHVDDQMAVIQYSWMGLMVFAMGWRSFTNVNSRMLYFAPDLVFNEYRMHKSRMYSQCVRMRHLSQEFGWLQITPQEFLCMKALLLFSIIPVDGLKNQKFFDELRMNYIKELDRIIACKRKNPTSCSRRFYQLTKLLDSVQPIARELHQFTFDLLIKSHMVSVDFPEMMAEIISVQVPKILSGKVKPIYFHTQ
Method: The androgen transactivation potential of EC313 was studied in the CHO cell line expressing this steroid protein receptor. The cells were co-transfected with a vector encoding a human full-length androgen receptor (hAR) linked to the reporter vector MMTV/LUC. To produce high protein expression, transient transfections were carried out. […] Agonist and antagonist properties of EC313 toward tested receptor AR were analyzed using luminescence detection.
To prepare the transfection assay, plasmids were generated and isolated. Plasmid included vector coding sequences for the receptor as well as the reporter gene. Vector pcDNA3.1 coding sequence for the full length of human AR (AR cDNA ORF clone in pcDNA3.1+/C-(K)-DYK) was used as an expression vector for AR. Vector pGL4.36 coding for the androgen-responsive element (MMTV) linked to Firefly luciferase [luc2P/Hygro] was used as a reporter system (pGL4.36-MMTV/LUC).
Co-transfection was performed on a 96-well plate (16x10^3 cells per well) in culture medium (RPMI w/o phenol red, 10% FBS, L-Glu) w/o antibiotics using transfection reagents following the manufacturer’s instructions. Prior to transfection, plated cells were approximately 70%–80% confluent. After 24h of transfection, medium was removed to a culture medium and cells were treated for the next 24h with the test compounds.
After incubating the cells for 24h with the tested compounds, the luciferase activity was analyzed.

cycling guinea pigs = test: Ovulation inhibition in cycling guinea pigs; format: in vivo, guinea pig; settings: for Number of ovulations vs. number of inseminated females: cycle days 10-17
Method: Test compounds were administered once daily from cycle days 10-17 by s. c. injection using 0.2 mL vehicle (benzyl-benzoate/castor oil, ratio 1 + 4 v/v). The time of autopsy (day 18) was 24-48h after the expected ovulation at the end of the treatment cycle. This design permits the study of the effects of the tested compounds on the expected ovulation. Fresh CL were evidence of a recent ovulation.

C[C@]12C[C@H](c3ccc(-c4ccoc4)cc3)C3=C4CCC(=O)C=C4CC[C@H]3[C@@H]1CC[C@]21OCCC1=C(F)F [EC313]
fold higher concentration for the same androgenic effect vs Metribolone (human androgen receptor; AR agonism): 38 fold
EC50 (human androgen receptor; AR, three experiments, read-out: EC50, agonistic activity): 280 nM
antagonistic activity (human androgen receptor; AR, vs 13 nM Metribolone): No antagonistic activity
Number of ovulations vs. number of inseminated females (cycling guinea pigs; 0.1 mg/animal/day s.c.): 1/5
Number of ovulations vs. number of inseminated females (cycling guinea pigs; 1.0 mg/animal/day s.c.): 0/5
Number of ovulations vs. number of inseminated females (cycling guinea pigs; 10.0 mg/animal/day s.c.): 0/8
inhibition of ovulation (cycling guinea pigs; 1 and 10 mg/animal/day s.c.): Full inhibition of ovulation
effects in the vaginal epithelium (cycling guinea pigs; non-pregnant guinea pigs, all tested dose levels, 0.1 to 10.0 mg/animal/day s.c.): mucification
